Patent US20130108573A1, “Bile Acid Recycling Inhibitors for Treatment of Hypercholemia and Cholestatic Liver Disease” (Lumena Pharmaceuticals, Inc., priority 2011, published 2013)

Assays:
Plasma Bile Acid Levels = assay: Plasma bile acid levels of ZDF rats after ascending doses of SC-435 and LUM002; assay type: in vivo; conditions: male ZDF rats n=4, end of second week
Protocol: FIG. 2. Plasma bile acid levels of ZDF rats after administration of ascending doses of SC-435 and LUM002. Male ZDF rats (n=4) were administered vehicle, SC-435 (1, 10 or 30 mg/kg) or LUM002 (0.3, 1, 3, 10 or 30 mg/kg) by oral gavage twice a day for 2 weeks. Plasma bile acid levels were determined at the end of the second week. Data are expressed as mean values ±SEM.
Male ZDF rats (n=4) were administered vehicle, SC-435 (1, 10 or 30 mg/kg) or LUM002 (0.3, 1, 3, 10 or 30 mg/kg) by oral gavage twice a day for 2 weeks. Plasma bile acid levels were determined at the end of the second week. […] Data are expressed as mean values ±SEM.

[1] = test system: Fecal Bile Acid Excretion and Plasma Bile Acid Concentrations; assay: ZDF rat study of 264W94: fecal bile acid excretion and plasma bile acid concentrations; assay type: in vivo, Zucker diabetic fatty rats; conditions: male ZDF rats, 2 weeks
Protocol: Male Zucker diabetic fatty rats (ZDF/GmiCrl-fa/fa) were purchased from Charles River (Raleigh, N.C.) and housed under controlled conditions (12:12 light-dark cycle, 24° C. and 50% relative humidity) with free access to rodent food (Purina 5008, Harlan Teklad, Indianapolis, Ind.). All rats arrived at seven weeks of age (±3 days). After a one-week acclimation period, rats were anesthetized with isoflurane (Abbott Laboratories, IL) and tail-vein blood samples were collected at 9 am without fasting. Blood glucose levels were measured using a glucometer (Bayer, Leverkusen, Germany). In order to ensure balanced treatment groups, ZDF rats were assigned to six treatment groups based upon baseline glucose: vehicle (0.5% HPMC, 0.1% Tween80) and five doses of 264W94 (0.001, 0.01, 0.1, 1, 10 mg/kg). All treatments were given via oral gavage twice a day and animals were followed for two weeks with blood samples collected from tail vein at the end of each week at 9 am without fasting. Fecal samples were collected for 24 hours during the second week of treatment.
Non-esterified fatty acids (NEFA), bile acids, and bile acids in fecal extraction were measured using the Olympus AU640 clinical chemistry analyzer (Beckman Coulter, Irving, Tex.).

[2] = 264W94 0.001-10 mg/kg oral gavage twice a day

CCCC[C@]1(CC)CS(=O)(=O)c2ccc(N(C)C)cc2[C@@H](c2cccc(NC(=O)N[C@@H]3O[C@H](COS(=O)(=O)[O-])[C@@H](O)[C@H](OCc4ccccc4)[C@H]3O)c2)[C@H]1O.[K+] [LUM002]
Plasma bile acid levels (Plasma Bile Acid Levels; LUM002 0.3, 1, 3, 10 or 30 mg/kg oral gavage twice a day for 2 weeks): decreased for all doses

CCCCC1(CCCC)CS(=O)(=O)c2ccc(N(C)C)cc2[C@@H](c2ccc(OCCCC[N+]34CCN(CC3)CC4)cc2)[C@H]1O.CS(=O)(=O)[O-] [SC-435, 1-[4-[4-[(4R,5R)-3,3-dibutyl-7-(dimethylamino)-2,3,4,5-tetrahydro-4-hydroxy-1,1-dioxido-1-benzothiepin-5-yl]phenoxy]butyl]-4-aza-1-azoniabicyclo[2.2.2]octane methanesulfonate salt, reference compound]
Plasma bile acid levels (Plasma Bile Acid Levels; SC-435 1, 10 or 30 mg/kg oral gavage twice a day for 2 weeks): decreased for all doses

CCCC[C@]1(CC)CS(=O)(=O)c2cc(OC)c(OC)cc2[C@@H](c2ccccc2)N1 [Compound 264W94]
Fecal NEFA [1, 2]: slightly increased
Plasma bile acid concentrations [1, 2]: decreased dose-dependently
Fecal bile acid concentrations elevated compared to vehicle treated rats ([1]; 264W94 0.001-10 mg/kg oral gavage twice a day, 24 h feces in second week): up to 6.5 fold
Bile acids in the feces ([1]; oral administration of 264W94 0.001-10 mg/kg twice a day): dose-dependently increased
ED50 of fecal bile acid elevation ([1]; oral gavage twice a day): 0.17 mg/kg
